# Test results reported in EPA's ToxRefDB 2.
# Legend:
# rat [1] = conditions: Prenatal developmental toxicity study, sprague dawley, Oral, Gavage/Intubation, dose end: 15 GD
# rat [2] = conditions: Multigenerational reproductive toxicity study, sprague dawley, Oral, Feed, dose end: 2 generation
# rat [3] = conditions: Subchronic oral toxicity in rodents, sprague dawley, Feed, dose end: 90 day
# dog = conditions: Chronic toxicity, beagle, Oral, Capsule, dose end: 12 month, group: systemic
# rat [4] = conditions: Combined chronic toxicity/carcinogenicity, sprague dawley, Oral, Feed, dose end: 24 month, group: systemic
# rat [5] = conditions: Subchronic oral toxicity in rodents, fischer, Gavage/Intubation, dose end: 13 week, group: systemic
# mouse = conditions: Subchronic oral toxicity in rodents, b6c3f1, Gavage/Intubation, dose end: 13 week, group: systemic
# [6] = group: developmental, developmental / developmental malformation / heart / [other] + developmental / developmental malformation / heart / defect a-v septum
# [7] = group: developmental, developmental / developmental malformation / heart / [other] + developmental / developmental malformation / heart / defect a-v septum + …
# [8] = group: maternal, reproductive / reproductive performance / resorptions / resorptions + reproductive / offspring survival early / litter size / litter size + …
# [9] = group: offspring, developmental / offspring survival late / viability index / viability index + systemic / in life observation / body weight / offspring (pup…
# [10] = group: parental, systemic / in life observation / body weight / body weight + systemic / in life observation / body weight / body weight gain + systemic / in…
# [11] = group: reproductive, reproductive / offspring survival early / birth index / live birth index
# [12] = group: cholinesterase, cholinesterase / cholinesterase / cholinesterase / cholinesterase (che)
# [13] = group: systemic, systemic / hematology / mean corpuscular (cell) volume (mcv) / mean corpuscular (cell) volume (mcv) + systemic / hematology / mean …
# [14] = group: systemic, systemic / organ weight / thyroid gland / absolute
# [15] = systemic / clinical chemistry / alkaline phosphatase (alp/alk) / alkaline phosphatase (alp/alk) + systemic / organ weight / liver / absolute…
# [16] = systemic / pathology microscopic / kidney / nephropathy + systemic / hematology / hemoglobin (hgb) / hemoglobin (hgb) + systemic / …
# [17] = systemic / clinical chemistry / urea nitrogen / urea nitrogen + systemic / hematology / neutrophils / neutrophils + systemic / in life …
# [18] = systemic / in life observation / body weight / body weight + systemic / in life observation / body weight / body weight gain + systemic / in…
# [19] = systemic / hematology / hemoglobin (hgb) / hemoglobin (hgb)
# [20] = systemic / hematology / hemoglobin (hgb) / hemoglobin (hgb) + systemic / hematology / erythrocyte (rbc) count differential / erythrocyte (…
compound,measurement,setting,value
C#CCN1C(=O)COc2cc(F)c(N3C(=O)C4=C(CCCC4)C3=O)cc21 [Flumioxazin],LEL,rat [1]; [6],10 mg/kg/day
same,LOAEL,rat [1]; [6],10 mg/kg/day
same,NEL,rat [1]; [7],3 mg/kg/day
same,NOAEL,rat [1]; [7],3 mg/kg/day
same,NEL,"rat [1]; group: maternal, reproductive / reproductive performance / resorptions / resorptions",10 mg/kg/day
same,LEL,rat [1]; [8],30 mg/kg/day
same,LOAEL,rat [1]; [8],> 30 mg/kg/day
same,NOAEL,rat [1]; [8],≥ 30 mg/kg/day
same,LEL,rat [2]; [9],12.7 mg/kg/day
same,NEL,rat [2]; [9],6.3 mg/kg/day
same,LOAEL,"rat [2]; group: offspring, systemic / in life observation / body weight / offspring (pup) weight",15.1 mg/kg/day
same,NOAEL,"rat [2]; group: offspring, systemic / in life observation / body weight / offspring (pup) weight + developmental / offspring survival late / lactation index / …",7.6 mg/kg/day
same,LOAEL,"rat [2]; group: parental, systemic / in life observation / body weight / body weight",12.7 mg/kg/day
same,NEL,rat [2]; [10],6.3 mg/kg/day
same,NOAEL,rat [2]; [10],6.3 mg/kg/day
same,LEL,"rat [2]; group: parental, systemic / in life observation / body weight / body weight + systemic / organ weight / epididymis / absolute + systemic / organ weight / …",12.7 mg/kg/day
same,LEL,rat [2]; [11],12.7 mg/kg/day
same,LOAEL,rat [2]; [11],12.7 mg/kg/day
same,NEL,rat [2]; [11],6.3 mg/kg/day
same,NOAEL,rat [2]; [11],6.3 mg/kg/day
same,LEL,rat [3]; [12],218 mg/kg/day
same,LOAEL,rat [3]; [12],> 218 mg/kg/day
same,NEL,rat [3]; [12],72.9 mg/kg/day
same,NOAEL,rat [3]; [12],≥ 218 mg/kg/day
same,LOAEL,rat [3]; [13],22.4 mg/kg/day
same,NOAEL,rat [3]; [13],2.2 mg/kg/day
same,LEL,rat [3]; [14],1.9 mg/kg/day
same,NEL,rat [3]; [14],< 1.9 mg/kg/day
same,LOAEL,dog; [15],1000 mg/kg/day
same,NEL,dog; [15],10 mg/kg/day
same,NOAEL,dog; [15],100 mg/kg/day
same,LEL,dog; systemic / organ weight / pituitary gland / absolute + systemic / organ weight / prostate / absolute + systemic / pathology microscopic / …,100 mg/kg/day
same,LOAEL,rat [4]; systemic / pathology microscopic / kidney / nephropathy,18 mg/kg/day
same,LEL,rat [4]; systemic / pathology microscopic / kidney / nephropathy + systemic / hematology / hemoglobin (hgb) / hemoglobin (hgb) + systemic / pathology…,18 mg/kg/day
same,NEL,rat [4]; [16],1.8 mg/kg/day
same,NOAEL,rat [4]; [16],1.8 mg/kg/day
O=C1OC(=O)c2c(Cl)c(Cl)c(Cl)c(Cl)c21 [Tetrachlorophthalic anhydride],LOAEL,rat [5]; [17],> 1500 mg/kg/day
same,NOAEL,rat [5]; [17],≥ 1500 mg/kg/day
same,LEL,rat [5]; [18],94 mg/kg/day
same,NEL,rat [5]; [18],< 94 mg/kg/day
same,LEL,mouse; [19],94 mg/kg/day
same,NEL,mouse; [19],< 94 mg/kg/day
same,LOAEL,mouse; [20],> 1500 mg/kg/day
same,NOAEL,mouse; [20],≥ 1500 mg/kg/day
